The test system of the test is lactobacillus. The test is described as follows: Liquid culture of lactobacillus. It counts as cell-based.

In the case of `CC(=O)N[C@H]1C(O)O[C@H](CO)[C@@H](O)[C@@H]1O` (stereo partly drawn) [N-acetyl-D-glucosamine], the growth of lactobacillus result is given as “could promote the growth of lactobacillus”.

Source of the values: patent US7704976B2, “Use of N-acetyl-D-glucosamine for preparing medicines for urogenital tract infection's treatment and prevention” (Third Military Medical University, Chinese People's …, priority 2002, dated 2010).
